The subject of one test is parasite. Description: Parasite LDH growth assay (Parasite Assay), antiparasite potency. In kind it is cell-based. The following applies: 72 h, parasite LDH growth assay, ring stage parasites, 72 hours incubation at 37° C.; read-out: EC50. The protocol: Assessing Antiparasite Potency in a Parasite LDH Growth Assay (Parasite Assay)
The parasite stock was maintained at 4% haematocrit in RPMI-Hepes media buffered with sodium bicarbonate and supplemented with 5% heat inactivated human serum and 0.5% albumax.
On the day of assay set up, a blood smear of the parasite culture was Giemsa stained and counted. The parasitemia was adjusted to 0.7% rings and the haematocrit was diluted to 2% in RPMI-Hepes media buffered with sodium bicarbonate and supplemented with 5% heat inactivated human serum and 0.5% albumax. 30 ul of diluted parasites are then added into 10 ul of media+compound in pre-prepared Greiner TC assay plates. Parasite assay plates were placed in gassed humidified boxes in single layer and allowed to incubate at 37° C. for 72 hours. After 72 hours growth, assay plates are sealed with parafilm and frozen flat, in single file at −80° C. overnight. On the following day, assay plates are allowed to thaw at room temperature for 4 hours to which an LDH assay is performed to measure parasite growth.
With `CC[C@]1(C)CC(=O)N([C@H]2c3cc(C(=O)N[C@@H]4c5ccccc5OC(C)(C)[C@H]4O)ccc3C[C@@H]2C)C(=N)N1` [Example 169, (2S,3R)-3-[(4R)-4-ethyl-2-imino-4-methyl-6-oxo-hexahydropyrimidin-1-yl]-N-[(3S,4R)-3-hydroxy-2,2-dimethyl-chroman-4-yl]-2-methyl-indane-5-carboxamide], the EC50 (in general, the concentration giving half of the maximal effect) came out at 0.3 nM. On to `CCC1(CC)CC(=O)N([C@@H]2C[C@@H](C)Oc3ccc(C(=O)N[C@@H]4c5ccccc5OC(C)(C)[C@H]4O)cc32)C(=N)N1` [Example 246, (2R,4R)-4-(4,4-diethyl-2-imino-6-oxo-hexahydropyrimidin-1-yl)-N-[(3S,4R)-3-hydroxy-2,2-dimethyl-chroman-4-yl]-2-methyl-chromane-6-carboxamide], for which the EC50 turned out to be 2 nM. For the compound `CCC1(CC)CC(=O)N([C@@H]2C[C@H](OC)c3ccc(C(=O)N[C@@H]4c5ccccc5C[C@@]4(C)O)cc32)C(=N)N1` [Example 158, (1S,3R)-3-(4,4-diethyl-2-imino-6-oxo-hexahydropyrimidin-1-yl)-N-[(1R,2R)-2-hydroxy-2-methyl-indan-1-yl]-1-methoxy-indane-5-carboxamide], the 50% effective concentration (EC50) amounted to 0.9 nM. On the same count and under the same terms, with `CCC1(CC)CC(=O)N([C@@H]2CCOc3ccc(C(=O)N[C@@H]4c5cc(Br)ccc5OC(C)(C)[C@H]4O)cc32)C(=N)N1` [Example 15A, (R)-N-((3S,4R)-6-bromo-3-hydroxy-2,2-dimethylchroman-4-yl)-4-(4,4-diethyl-2-imino-6-oxotetrahydropyrimidin-1(2H)-yl)chromane-6-carboxamide] the figure was 0.3 nM. As for `COC1COc2ccc(C(=O)N[C@@H]3c4ccccc4OC[C@@]3(C)O)cc2C1N1C(=N)NC(C)(C)CC1=O` (stereo partly drawn) [Example 186, N-[(3S,4R)-3-hydroxy-3-methyl-chroman-4-yl]-4-(2-imino-4,4-dimethyl-6-oxo-hexahydropyrimidin-1-yl)-3-methoxy-chromane-6-carboxamide], the 50% effective concentration (EC50) was determined as 70 nM. For the compound `CCC1(CC)CC(=O)N([C@@H]2CCOc3ccc(C(=O)N[C@@H](C)c4ccccc4OC)cc32)C(=N)N1` [Example 111, (4R)-4-(4,4-diethyl-2-imino-6-oxo-hexahydropyrimidin-1-yl)-N-[(1S)-1-(2-methoxyphenyl)ethyl]chromane-6-carboxamide], the concentration for a half-maximal effect (EC50) came to 90 nM. As to `CCC1C[C@@H](N2C(=N)NC(CC)(CC)CC2=O)c2cc(C(=O)NC3c4ccccc4OC(C)(C)C3O)ccc2O1` (single isomer, unassigned) [Example 13B], the EC50 is 54 nM. On to `CCC1(CC)CC(=O)N([C@@H]2CC(COC)Oc3ccc(C(=O)N[C@@H]4c5ccccc5OC(C)(C)[C@H]4O)cc32)C(=N)N1` (stereo partly drawn) [Example 18A, (4R)-4-(4,4-diethyl-2-imino-6-oxotetrahydropyrimidin-1(2H)-yl)-N-((3S,4R)-3-hydroxy-2,2-dimethylchroman-4-yl)-2-(methoxymethyl)chromane-6-carboxamide], for which the EC50 turned out to be 0.8 nM. Turning to `CC[C@]1(C)CC(=O)N([C@H]2c3cc(C(=O)N[C@@H]4c5ccccc5OC(C)(C)[C@H]4O)ccc3OC[C@@H]2COC)C(=N)N1` [Example 277, (3S,4R)-4-[(4R)-4-ethyl-2-imino-4-methyl-6-oxo-hexahydropyrimidin-1-yl]-N-[(3S,4R)-3-hydroxy-2,2-dimethyl-chroman-4-yl]-3-(methoxymethyl)chromane-6-carboxamide], the EC50 was 0.4 nM. As for `CCC1(CC)CC(=O)N([C@H]2c3cc(C(=O)N[C@H]4c5ccccc5C(F)(F)[C@@H]4O)ccc3O[C@@]2(C)COC)C(=N)N1` [Example 291, (2R,3S)-3-(4,4-diethyl-2-imino-6-oxo-hexahydropyrimidin-1-yl)-N-[(1S,2R)-3,3-difluoro-2-hydroxy-indan-1-yl]-2-(methoxymethyl)-2-methyl-3H-benzofuran-5-carboxamide], the concentration for a half-maximal effect (EC50) came out at 240 nM. The same measure, in the same setting: with `C[C@@H]1Cc2ccc(C(=O)N[C@@H]3c4ccccc4OC(C)(C)[C@H]3O)cc2[C@@H]1N1C(=N)NC(C)(C)CC1=O` [Example 135, (2R,3R)-N-[(3S,4R)-3-hydroxy-2,2-dimethyl-chroman-4-yl]-3-(2-imino-4,4-dimethyl-6-oxo-hexahydropyrimidin-1-yl)-2-methyl-indane-5-carboxamide] the figure was 0.9 nM; with `C[C@@H]1C[C@@H](N2C(=N)NC(C)(C)CC2=O)c2cc(C(=O)N[C@@H]3c4ccccc4OC[C@@]3(C)O)ccc21` [Example 104, (1R,3R)-N-[(3S,4R)-3-hydroxy-3-methyl-chroman-4-yl]-3-(2-imino-4,4-dimethyl-6-oxo-hexahydropyrimidin-1-yl)-1-methyl-indane-5-carboxamide], 5 nM.

`CCC1(CC)CC(=O)N([C@@H]2C[C@H](OC)c3ccc(C(=O)N[C@@H]4c5ccccc5OC(C)(C)[C@H]4O)cc32)C(=N)N1` [Example 239, (1S,3R)-3-(4,4-diethyl-2-imino-6-oxo-hexahydropyrimidin-1-yl)-N-[(3S,4R)-3-hydroxy-2,2-dimethyl-chroman-4-yl]-1-methoxy-indane-5-carboxamide]: the concentration for a half-maximal effect (EC50) turned out to be 0.9 nM. Turning to `CCC1(CC)CC(=O)N([C@H]2c3cc(C(=O)N[C@@H]4c5ccccc5C(F)(F)[C@H]4O)ccc3O[C@@]2(C)COC)C(=N)N1` [Example 290, (2R,3S)-3-(4,4-diethyl-2-imino-6-oxo-hexahydropyrimidin-1-yl)-N-[(1R,2S)-3,3-difluoro-2-hydroxy-indan-1-yl]-2-(methoxymethyl)-2-methyl-3H-benzofuran-5-carboxamide], the EC50 was determined as 0.3 nM.

In the case of `CCC1(CC)CC(=O)N([C@H]2c3cc(C(=O)N[C@@H]4c5ccccc5C[C@H]4O)ccc3OC[C@@H]2C)C(=N)N1` [Example 120, (3R,4R)-4-(4,4-diethyl-2-imino-6-oxo-hexahydropyrimidin-1-yl)-N-[(1R,2R)-2-hydroxyindan-1-yl]-3-methyl-chromane-6-carboxamide], the half-maximal effective concentration (EC50) is 0.8 nM.

As for `CC1(C)CC(=O)N(C2c3cc(C(=O)N[C@@H]4c5ccccc5C[C@H]4O)ccc3CC2(C)C)C(=N)N1` (stereo partly drawn) [Example 87, N-[(1R,2R)-2-hydroxyindan-1-yl]-3-(2-imino-4,4-dimethyl-6-oxo-hexahydropyrimidin-1-yl)-2,2-dimethyl-indane-5-carboxamide], the half-maximal effective concentration (EC50) is 105 nM. On to `CCC1(CC)CC(=O)N([C@H]2c3cc(C(=O)N[C@@H]4c5ccccc5OC(C)(C)[C@H]4O)ccc3OC2(C)C)C(=N)N1` [Example 245, (3S)-3-(4,4-diethyl-2-imino-6-oxo-hexahydropyrimidin-1-yl)-N-[(3S,4R)-3-hydroxy-2,2-dimethyl-chroman-4-yl]-2,2-dimethyl-3H-benzofuran-5-carboxamide], for which the EC50 amounted to 0.8 nM.

Still in this test, the particulars now being: parasite LDH growth assay, ring stage parasites, 72 hours incubation at 37° C.; read-out: EC50.
Consider `CCC1(CC)CC(=O)N([C@H]2c3cc(C(=O)N[C@@H]4c5ccccc5OC(C)(C)[C@H]4O)ccc3OC2(C)COC)C(=N)N1` (stereo partly drawn) [Example 73A, (2S,3S)-3-(4,4-diethyl-2-imino-6-oxotetrahydropyrimidin-1(2H)-yl)-N-((3S,4R)-3-hydroxy-2,2-dimethylchroman-4-yl)-2-(methoxymethyl)-2-methyl-2,3-dihydrobenzofuran-5-carboxamide], for which the concentration giving a half-maximal response (EC50) was 0.3 nM.

With `CCC1(CC)CC(=O)N([C@@H]2CCOc3ccc(C(=O)NC4c5ccccc5OCC4O)cc32)C(=N)N1` (stereo partly drawn) [Example 8A, (4R)-4-(4,4-diethyl-2-imino-6-oxotetrahydropyrimidin-1(2H)-yl)-N-(3-hydroxychroman-4-yl)chromane-6-carboxamide], the EC50 came out at 10 nM. Turning to `CCC1(CC)CC(=O)N([C@@H]2CC(C)(C)Oc3ccc(C(=O)N[C@@H]4c5cc(F)ccc5OC(C)(C)[C@H]4O)cc32)C(=N)N1` [Example 53A, (R)-4-(4,4-diethyl-2-imino-6-oxotetrahydropyrimidin-1(2H)-yl)-N-((3S,4R)-6-fluoro-3-hydroxy-2,2-dimethylchroman-4-yl)-2,2-dimethylchromane-6-carboxamide], the EC50 was found to be 0.3 nM. Turning to `CCC1(CC)CC(=O)N([C@@H]2CCOc3ccc(C(=O)NC4c5cc(F)ccc5OCC4(C)O)cc32)C(=N)N1` (stereo partly drawn) [Example 226D, (4R)-4-(4,4-diethyl-2-imino-6-oxo-hexahydropyrimidin-1-yl)-N-(6-fluoro-3-hydroxy-3-methyl-chroman-4-yl)chromane-6-carboxamide], the EC50 amounted to 1 nM.

For `CCC1(CC)CC(=O)N([C@@H]2CCOc3ccc(C(=O)NC4c5ccccc5CC4(O)C(F)(F)F)cc32)C(=N)N1` (stereo partly drawn) [Example 272C, (4R)-4-(4,4-diethyl-2-imino-6-oxo-hexahydropyrimidin-1-yl)-N-[2-hydroxy-2-(trifluoromethyl)indan-1-yl]chromane-6-carboxamide], the EC50 stood at 0.9 nM. Turning to `CCC1(CC)CC(=O)N(C2c3cc(C(=O)N[C@@H]4c5ccccc5OC(C)(C)[C@H]4O)ccc3CC2OC)C(=N)N1` (single isomer, unassigned) [Example 251A], the concentration for a half-maximal effect (EC50) turned out to be 0.4 nM.

Take `CCC1C[C@@H](N2C(=N)NC(CC)(CC)CC2=O)c2cc(C(=O)N[C@@H]3c4ccccc4C[C@H]3O)ccc2O1` (stereo partly drawn) [Example 9A, (4R)-4-(4,4-diethyl-2-imino-6-oxotetrahydropyrimidin-1(2H)-yl)-2-ethyl-N-((1R,2R)-2-hydroxy-2,3-dihydro-1H-inden-1-yl)chromane-6-carboxamide]: the EC50 came out at 0.9 nM.

Take `CCC1(CC)CC(=O)N([C@@H]2CCOc3ccc(C(=O)NC4c5ccccc5OC4(C)COC)cc32)C(=N)N1` (stereo partly drawn) [Example 64B, (4R)-4-(4,4-diethyl-2-imino-6-oxotetrahydropyrimidin-1(2H)-yl)-N-(2-(methoxymethyl)-2-methyl-2,3-dihydrobenzofuran-3-yl)chromane-6-carboxamide]: the EC50 was 0.9 nM.

These data come from US20230355622A1, “METHODS OF CHEMOVACCINATION AGAINST PLASMODIUM INFECTIONS” (Merck Sharp & Dohme LLC, priority 2020, published 2023).
